From ChEMBL document CHEMBL3832761, “MMV Pathogen Box Bioactivity Data” (2017) come the findings set out here.

SMILES strings stand for the structures. In brackets after ≈: the same amount, converted by molar mass.

The term MIC denotes the lowest concentration found to suppress growth. By MIC90 is commonly meant the lowest concentration that inhibits either 90% of growth or 90% of the strains tested, depending on the study. A higher MIC90 goes with lower susceptibility. Usually CC50 stands for the concentration at which the toxic effect on the cells reaches its halfway point. The low end stands for harm at low concentration, the high end for better tolerance by the cells.

What all share (format): functional
The subject of test [1] is Mycobacterium tuberculosis. In words: AntiMycobacterium tuberculosis activity 2-week Alamar Blue 7H9/cholesterol/BSA/Tx MIC (uM). The conditions noted are these: 336 h. Background: The colour change of resazurin is a common sign of viable cells or microbes.
Test [2] has as its system Mycobacterium tuberculosis. In words: (§1) AntiMycobacterium tuberculosis activity day 10 in 7H9/2.5mM butyrate/pH6/0.1mM nitrite MIC90 (uM). Particulars: 240 h.
Test [3] concerns Mycobacterium tuberculosis. The test can be described thus: AntiMycobacterium tuberculosis activity 1-week 7H9/glucose/BSA/Tx MIC (uM). Particulars: 168 h.
For test [4], the system named is Mycobacterium tuberculosis. The test can be described thus: AntiMycobacterium tuberculosis activity day 21 in 7H9/2.5mM butyrate/pH6/0.1mM nitrite MIC90 (uM). The conditions noted are these: 504 h.
The test system of test [5] is Mycobacterium tuberculosis. In words: AntiMycobacterium tuberculosis activity 1-week GAST/Fe MIC (uM). Particulars: 168 h.
The subject of test [6] is Mycobacterium tuberculosis. The test can be described thus: AntiMycobacterium tuberculosis activity 2-week 7H9/DPPC/cholesterol/BSA/Tx MIC (uM). The conditions noted are these: 336 h.
Test [7] deals with Mycobacterium tuberculosis. The test can be described thus: AntiMycobacterium tuberculosis activity Non-Replicating form: Average MIC90 (uM).
The subject of test [8] is Mycobacterium tuberculosis. In words: AntiMycobacterium tuberculosis activity Replicating form: Average MIC90 (uM).
Test [9] deals with Mycobacterium tuberculosis. The test can be described thus: AntiMycobacterium tuberculosis activity 2-week 7H9/glucose/BSA/Tx MIC (uM). Particulars: 336 h.
In test [10] the test system is Mycobacterium tuberculosis. In words: AntiMycobacterium tuberculosis activity 2-week GAST/Fe MIC (uM). Particulars: 336 h.
The subject of test [11] is Mycobacterium tuberculosis. The test can be described thus: AntiMycobacterium tuberculosis activity 1-week 7H9/DPPC/cholesterol/BSA/Tx MIC (uM). The conditions noted are these: 168 h.
The test system of test [12] is Mycobacterium tuberculosis. Described as §1. Particulars: 240 h. The source holds these as a separate data set.
Test [13] has as its system Mycobacterium tuberculosis. In words: AntiMycobacterium tuberculosis activity 2-week Alamar Blue 7H9/ADC/Tw MIC (uM). Particulars: 336 h.
Test [14] concerns Mycobacterium tuberculosis. In words: AntiMycobacterium tuberculosis activity 1-week 7H9/ADC/Tw MIC (uM). Particulars: 168 h.
Test [15] relates to Mycobacterium tuberculosis. In words: AntiMycobacterium tuberculosis activity 2-week 7H9/ADC/Tw MIC (uM). Particulars: 336 h.
The subject of a further test is HepG2. In words: HepG2 CC50 (uM) Cytotoxicity. Particulars: Homo sapiens.
Test [16] relates to Mycobacterium tuberculosis. In words: AntiMycobacterium tuberculosis activity day 21 MIC99 in 7H9/2.5mM butyrate/pH6/0.1mM nitrite MIC99 (uM). Particulars: 504 h.
Test [17] has as its system Mycobacterium tuberculosis. In words: AntiMycobacterium tuberculosis activity 1-week 7H9/cholesterol/BSA/Tx MIC (uM). The conditions noted are these: 168 h.

`O=C(Nc1nnc(-c2ccc(Cl)cc2)o1)c1cccc(C(F)(F)F)c1`: the MIC worked out at 12.5 µM (≈ 4.6 µg/mL) in test [1]; 3.13 µM (≈ 1.15 µg/mL) in [3]; 0.05 µM (≈ 0.0184 µg/mL) in test [5]; 19 µM (≈ 6.99 µg/mL) in test [6]; 6.25 µM (≈ 2.3 µg/mL) in [9]; 0.07 µM (≈ 0.0257 µg/mL) in test [10]. Moreover, the MIC in test [11] was determined as 4.7 µM (≈ 1.73 µg/mL); in test [13] it was 25 µM (≈ 9.19 µg/mL); in test [14], 25 µM (≈ 9.19 µg/mL); in [15] it was 25 µM (≈ 9.19 µg/mL); in test [16], 50 µM (≈ 18.4 µg/mL); in [17], 19 µM (≈ 6.99 µg/mL). Further, the MIC90 is 12.5 µM (≈ 4.6 µg/mL) in [2]; 12.5 µM (≈ 4.6 µg/mL) in test [4]; 2.71 µM (≈ 0.997 µg/mL) in [7]; 27.2 µM (≈ 10 µg/mL) in [8]; greater than 50 µM in [12]. The molecule also displayed a CC50 in the test with HepG2 of 9 µM.

With `O=C(NCCc1c[nH]c2ccccc12)c1cc2ccccc2oc1=O`, the MIC in [1] is 4.7 µM (≈ 1.56 µg/mL); in test [3], 0.78 µM (≈ 0.259 µg/mL); in test [5], 0.3 µM (≈ 0.0997 µg/mL); in test [6], 3.13 µM (≈ 1.04 µg/mL); in test [9], 1.56 µM (≈ 0.518 µg/mL); in [10] it was 0.6 µM (≈ 0.199 µg/mL). Further, the MIC in test [11] was 1.56 µM (≈ 0.518 µg/mL); in test [13] it was 0.78 µM (≈ 0.259 µg/mL); in [14], 0.78 µM (≈ 0.259 µg/mL); in test [15], 0.78 µM (≈ 0.259 µg/mL); in [16] it was greater than 50 µM; in test [17] it was 1.2 µM (≈ 0.399 µg/mL). Also, the MIC90 in test [2] is 12.5 µM (≈ 4.15 µg/mL); in test [4] it was 50 µM (≈ 16.6 µg/mL); in test [7] it was 4.78 µM (≈ 1.59 µg/mL); in [8] it was 7.71 µM (≈ 2.56 µg/mL); in test [12], greater than 50 µM. In addition, the CC50 in the test on HepG2 is greater than 100 µM.

`Nc1cccnc1Nc1ccc(Cl)cc1`: the MIC came out at 4.7 µM (≈ 1.03 µg/mL) in test [1]; 50 µM (≈ 11 µg/mL) in test [3]; 50 µM (≈ 11 µg/mL) in test [5]; 19 µM (≈ 4.17 µg/mL) in test [6]; 50 µM (≈ 11 µg/mL) in test [9]; 50 µM (≈ 11 µg/mL) in [10]. Further, the MIC is 12.5 µM (≈ 2.75 µg/mL) in test [11]; 37 µM (≈ 8.13 µg/mL) in test [13]; greater than 50 µM in [14]; greater than 50 µM in [15]; greater than 50 µM in [16]; 9.4 µM (≈ 2.06 µg/mL) in test [17]. In addition, the MIC90 in [2] was 12.5 µM (≈ 2.75 µg/mL); in [4], 50 µM (≈ 11 µg/mL); in [7] it was 3.65 µM (≈ 0.802 µg/mL); in [8] it was 4.3 µM (≈ 0.945 µg/mL); in test [12], greater than 50 µM. Further, the CC50 in the test with HepG2 was 9 µM.

With `Brc1c(-c2ccc3c(c2)OCO3)nc2ncccn12`, the MIC was found to be 2.3 µM (≈ 0.732 µg/mL) in test [1]; 25 µM (≈ 7.95 µg/mL) in [3]; 0.2 µM (≈ 0.0636 µg/mL) in test [5]; 25 µM (≈ 7.95 µg/mL) in [6]; 37 µM (≈ 11.8 µg/mL) in test [9]; 0.3 µM (≈ 0.0954 µg/mL) in [10]. The MIC in [11] was 3.13 µM (≈ 0.996 µg/mL); in [13], 4.7 µM (≈ 1.5 µg/mL); in test [14], 25 µM (≈ 7.95 µg/mL); in [15], 37 µM (≈ 11.8 µg/mL); in test [16], 50 µM (≈ 15.9 µg/mL); in [17], 1.56 µM (≈ 0.496 µg/mL). Further, the MIC90 in test [2] was 1.5 µM (≈ 0.477 µg/mL); in [4], 12.5 µM (≈ 3.98 µg/mL); in test [7], 27.8 µM (≈ 8.84 µg/mL); in test [8], 45.1 µM (≈ 14.4 µg/mL); in [12], greater than 50 µM. Besides, the CC50 in the test with HepG2 was greater than 100 µM.

As to `NCC(c1cccs1)S(=O)(=O)c1ccccc1` (stereo not drawn), the MIC in test [1] is 50 µM (≈ 13.4 µg/mL); in test [3], 25 µM (≈ 6.68 µg/mL); in test [5], 1.56 µM (≈ 0.417 µg/mL); in test [6], 50 µM (≈ 13.4 µg/mL); in test [9], 25 µM (≈ 6.68 µg/mL); in [10], 2.3 µM (≈ 0.615 µg/mL). Also, the MIC in test [11] was 50 µM (≈ 13.4 µg/mL); in [13] it was 25 µM (≈ 6.68 µg/mL); in test [14], 19 µM (≈ 5.08 µg/mL); in [15], 25 µM (≈ 6.68 µg/mL); in test [16], greater than 50 µM; in test [17] it was 50 µM (≈ 13.4 µg/mL). The MIC90 in [2] was 25 µM (≈ 6.68 µg/mL); in test [4], 25 µM (≈ 6.68 µg/mL); in test [7], 19.6 µM (≈ 5.24 µg/mL); in test [8], 20.7 µM (≈ 5.52 µg/mL); in test [12], greater than 50 µM. In the test on HepG2, this molecule gave a CC50 of 35.4 µM.

As for `CC1COC2(CCN(c3nc(=O)c4cc(C(F)(F)F)cc([N+](=O)[O-])c4s3)CC2)O1` (stereo not drawn), the MIC in test [1], in test [3], in test [5], in test [6], in test [9] and in [10] was less than 0.02 µM throughout. The MIC in test [11] was less than 0.02 µM; in [13] it was less than 0.02 µM; in test [14], less than 0.02 µM; in [15], less than 0.02 µM; in test [16] it was no more than 0.04 µM; in test [17], less than 0.02 µM. For the same molecule, the MIC90 was no more than 0.04 µM in [2]; no more than 0.04 µM in test [4]; less than 0.01 µM in [7]; less than 0.01 µM in [8]; no more than 0.04 µM in test [12]. For the same molecule, the CC50 in the test with HepG2 was greater than 100 µM.
